Experiments:
[1] = system: primary human T-cells; assay: Proliferation assay (5 days, CellTiter-Glo, CD3-stimulated T-cells); assay type: cell-based; conditions: for Emax proliferation (% activation): CD3 condition, normalised to DMSO (neutral) and 20 μM reference compound A1 = 100%; for EC50: Homo sapiens, T-cell, 120 h, CD3-stimulated primary human T-cells, 5 days, CellTiter-Glo, fitted sigmoidal curve, read-out: Tcell Proliferation CD3 EC50
Outline: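 Proliferation read-out: ATP luminescence (CellTiter-Glo 2.0) at day 5 in expanded primary human T-cells on CD3 antibody-coated plates, with PBS-only plates as a counter screen. Compounds in 5–6 pt series (factor 3.333, top 20 or 10 μM final). Values are normalized to DMSO (neutral) and 20 μM reference A1 (100%), from sigmoidal fits.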

[2] = molecular target: T1, DGKα (hDGKalpha(1-735)-N-His) (Homo sapiens, UniProt P23743); assay: In vitro DGK inhibition assay, DGKalpha ADP Glo (in house); assay type: biochemical; conditions: 4 nM DGKα, 25 μM ATP, 125 uM DLG in liposomes, 1 hour reaction
T1 construct: hDGKalpha(1-735)-N-His; His (N); made in house; host or cells: Sf21 insect cells (baculovirus)
Outline: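 ADP-Glo luminescence measured ADP formed over 1 h by Sf21-expressed full-length human enzymes: DGKα at 4 nM with 25 µM ATP, DGKζ at 2 nM with 50 µM ATP, both on 125 µM DLG in PS/PC liposomes. Dose–response used 11 threefold dilutions at 2% final DMSO.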

T1 sequence (P23743 whole entry): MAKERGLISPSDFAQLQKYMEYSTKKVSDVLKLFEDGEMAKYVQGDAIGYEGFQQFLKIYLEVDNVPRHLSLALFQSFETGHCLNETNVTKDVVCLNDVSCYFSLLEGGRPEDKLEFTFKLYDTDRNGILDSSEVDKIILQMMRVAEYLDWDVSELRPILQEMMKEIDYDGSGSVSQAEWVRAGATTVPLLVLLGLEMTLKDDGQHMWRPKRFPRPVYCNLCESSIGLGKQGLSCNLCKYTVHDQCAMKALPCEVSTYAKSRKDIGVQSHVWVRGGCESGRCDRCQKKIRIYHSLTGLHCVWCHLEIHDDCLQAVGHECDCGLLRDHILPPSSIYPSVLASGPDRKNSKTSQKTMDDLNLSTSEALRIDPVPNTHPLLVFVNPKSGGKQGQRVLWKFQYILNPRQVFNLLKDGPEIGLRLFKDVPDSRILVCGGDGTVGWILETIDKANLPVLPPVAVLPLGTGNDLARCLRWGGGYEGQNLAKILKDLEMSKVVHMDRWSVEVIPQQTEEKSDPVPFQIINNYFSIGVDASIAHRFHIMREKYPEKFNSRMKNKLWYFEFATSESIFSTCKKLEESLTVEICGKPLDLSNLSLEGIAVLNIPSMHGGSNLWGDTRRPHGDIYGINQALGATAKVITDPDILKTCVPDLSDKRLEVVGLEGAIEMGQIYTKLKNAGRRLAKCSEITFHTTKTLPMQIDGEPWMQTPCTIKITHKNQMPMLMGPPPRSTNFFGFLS

IC50 [2] [nM]	Structure (SMILES)	Emax proliferation (% activation) [1] [% activation]	EC50 [1] [nM]
1300	Cn1nc(C(F)(F)F)cc1-c1ccc(CN2C(=O)[C@@H](N)CS(=O)(=O)c3ccc(-c4nnc(C(C)(C)C#N)o4)cc32)cc1 [Example 107, 2-[5-[(3R)-3-amino-5-[[4-[2-methyl-5-(trifluoromethyl)pyrazol-3-yl]phenyl]methyl]-1,1,4-trioxo-2,3-dihydro-1λ^6,5-benzothiazepin-7-yl]-1,3,4-oxadiazol-2-yl]-2-methyl-propanenitrile]	165	2160
1390	CC(C)(C#N)c1nnc(-c2ccc3c(c2)N(Cc2ccc(-c4ccc(OC(F)F)cn4)cc2)C(=O)[C@@H](N)CS3(=O)=O)o1 [Example 108, 2-[5-[(3R)-3-amino-5-[[4-[5-(difluoromethoxy)-2-pyridyl]phenyl]methyl]-1,1,4-trioxo-2,3-dihydro-1λ^6,5-benzothiazepin-7-yl]-1,3,4-oxadiazol-2-yl]-2-methyl-propanenitrile]	204	820
2110	CC(F)(F)c1ccc(-c2ccc(CN3C(=O)[C@@H](N)CS(=O)(=O)c4ccc(-c5nnc(C(C)(C)C#N)o5)cc43)cc2)nc1 [Example 109, 2-[5-[(3R)-3-amino-5-[[4-[5-(1,1-difluoroethyl)-2-pyridyl]phenyl]methyl]-1,1,4-trioxo-2,3-dihydro-1λ^6,5-benzothiazepin-7-yl]-1,3,4-oxadiazol-2-yl]-2-methyl-propanenitrile]	129	445
> 60000	CC(C)(C#N)c1nnc(-c2ccc3c(c2)N(Cc2ccc(-c4cc(OC(F)F)ccn4)cc2)C(=O)[C@@H](N)CS3(=O)=O)o1 [Example 110, 2-[5-[(3R)-3-amino-5-[[4-[4-(difluoromethoxy)-2-pyridyl]phenyl]methyl]-1,1,4-trioxo-2,3-dihydro-1λ^6,5-benzothiazepin-7-yl]-1,3,4-oxadiazol-2-yl]-2-methyl-propanenitrile]	85	5780
> 62500	CC(C)(C#N)c1nnc(-c2ccc3c(c2)N(Cc2ccc(-c4ccnc(C(F)(F)F)c4)cc2)C(=O)[C@@H](N)CS3(=O)=O)o1 [Example 111, 2-[5-[(3R)-3-amino-1,1,4-trioxo-5-[[4-[2-(trifluoromethyl)-4-pyridyl]phenyl]methyl]-2,3-dihydro-1λ^6,5-benzothiazepin-7-yl]-1,3,4-oxadiazol-2-yl]-2-methyl-propanenitrile]	117	926
1750	CC(C)(C#N)c1nnc(-c2ccc3c(c2)N(Cc2ccc(-c4cnc(OC(F)(F)F)cn4)cc2)C(=O)[C@@H](N)CS3(=O)=O)o1 [Example 112]	116	292
> 62500	CC(C)(C#N)c1nnc(-c2ccc3c(c2)N(Cc2ccc(-c4ccc(C(F)(F)F)nc4)cc2)C(=O)[C@@H](N)CS3(=O)=O)o1 [Example 113, 2-[5-[(3R)-3-amino-1,1,4-trioxo-5-[[4-[6-(trifluoromethyl)-3-pyridyl]phenyl]methyl]-2,3-dihydro-1λ^6,5-benzothiazepin-7-yl]-1,3,4-oxadiazol-2-yl]-2-methyl-propanenitrile]	79	1060
> 60000	Cc1nc(-c2ccc(CN3C(=O)[C@@H](N)CS(=O)(=O)c4ccc(-c5nnc(C(C)(C)C#N)o5)cc43)cc2)ccc1C(F)(F)F [Example 114]	78	7420
585	CC(C)(C#N)c1nnc(-c2ccc3c(c2)N(Cc2ccc(-c4cnn(C(F)(F)F)c4)cc2)C(=O)[C@@H](N)CS3(=O)=O)o1 [Example 115, 2-[5-[(3R)-3-amino-1,1,4-trioxo-5-[[4-[1-(trifluoromethyl)pyrazol-4-yl]phenyl]methyl]-2,3-dihydro-1λ^6,5-benzothiazepin-7-yl]-1,3,4-oxadiazol-2-yl]-2-methyl-propanenitrile]	140	278
> 62500	CC(C)(C#N)c1nnc(-c2ccc3c(c2)N(Cc2ccc(-c4cc(C(F)(F)F)ccn4)cc2)C(=O)[C@@H](N)CS3(=O)=O)o1 [Example 116, 2-[5-[(3R)-3-amino-1,1,4-trioxo-5-[[4-[4-(trifluoromethyl)-2-pyridyl]phenyl]methyl]-2,3-dihydro-1λ^6,5-benzothiazepin-7-yl]-1,3,4-oxadiazol-2-yl]-2-methyl-propanenitrile]	97	439
1140	CC(C)(C#N)c1nnc(-c2ccc3c(c2)N(Cc2ccc(-c4ncc(OC(F)(F)F)cn4)cc2)C(=O)[C@@H](N)CS3(=O)=O)o1 [Example 117]	136	174
16400	CC(C)(C#N)c1nnc(-c2ccc3c(c2)N(Cc2ccc(-c4ccc(C5CC5)cn4)cc2)C(=O)[C@@H](N)CS3(=O)=O)o1 [Example 118, 2-[5-[(3R)-3-amino-5-[[4-(5-cyclopropyl-2-pyridyl)phenyl]methyl]-1,1,4-trioxo-2,3-dihydro-1λ^6,5-benzothiazepin-7-yl]-1,3,4-oxadiazol-2-yl]-2-methyl-propanenitrile]	144	1570
3450	CC(C)(C#N)c1nnc(-c2ccc3c(c2)N(Cc2ccc(-c4ccc(OC(F)(F)F)cc4)nc2)C(=O)[C@@H](N)CS3(=O)=O)o1 [Example 119, 2-[5-[(3R)-3-amino-1,1,4-trioxo-5-[[6-[4-(trifluoromethoxy)phenyl]-3-pyridyl]methyl]-2,3-dihydro-1λ^6,5-benzothiazepin-7-yl]-1,3,4-oxadiazol-2-yl]-2-methyl-propanenitrile]	119	809
13500	CC(C)(C#N)c1nnc(-c2ccc3c(c2)N(Cc2ccc(-n4nnc(C(F)(F)F)n4)cc2)C(=O)[C@@H](N)CS3(=O)=O)o1 [Example 120, 2-[5-[(3R)-3-amino-1,1,4-trioxo-5-[[4-[5-(trifluoromethyl)tetrazol-2-yl]phenyl]methyl]-2,3-dihydro-1λ^6,5-benzothiazepin-7-yl]-1,3,4-oxadiazol-2-yl]-2-methyl-propanenitrile]	205	1520
1860	CC(C)(C#N)c1nnc(-c2ccc3c(c2)N(Cc2ccc(-c4nc(C(F)(F)F)co4)cc2)C(=O)[C@@H](N)CS3(=O)=O)o1 [Example 123, 2-[5-[(3R)-3-amino-1,1,4-trioxo-5-[[4-[4-(trifluoromethyl)oxazol-2-yl]phenyl]methyl]-2,3-dihydro-1λ^6,5-benzothiazepin-7-yl]-1,3,4-oxadiazol-2-yl]-2-methyl-propanenitrile]	103	860
3520	COc1ccc(-c2ccc(CN3C(=O)[C@@H](N)CS(=O)(=O)c4ccc(-c5nnc(C(C)(C)C#N)o5)cc43)cc2)nc1 [Example 125]	127	2310

Reference: patent publication US20260138976A1 (Hoffmann-La Roche Inc., priority 2022, published 2026)
